Assay results published in the supplement of paper PMC10307832.

Key:
Assay in all cases: relative viability (nuclei count vs DMSO), 5 days (fraction); higher = more cells survive
[1] = compound: COc1cc(Nc2ncc3c(n2)-c2ccc(Cl)cc2C(c2c(F)cccc2OC)=NC3)ccc1C(=O)O [Alisertib] + CC(C)C[C@H](NC(=O)[C@H](Cc1ccccc1)NC(=O)c1cnccn1)B(O)O [Bortezomib] (partner 0.002 µM)
Method in brief: (§1)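 A single step with final 0.05% Triton X-100, 1% formaldehyde and 1 ug/ml Hoechst fixed the cells and stained nuclei 5 days after treatment. Lung cancer cell lines in 1536-well plates had been treated by pin tool the day after seeding with one drug alone or a fixed anchor-drug dose plus five library-drug doses (not always all listed) in √10 steps, and nuclei were counted on 4× images. Relative viability is the ratio of nuclei in treated wells to nuclei in vehicle wells, taken as the median of duplicate plates.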

[2] = compound: COc1cc(Nc2ncc3c(n2)-c2ccc(Cl)cc2C(c2c(F)cccc2OC)=NC3)ccc1C(=O)O [Alisertib] + CC(=O)Nc1cccc(-n2c(=O)n(C3CC3)c(=O)c3c(Nc4ccc(I)cc4F)n(C)c(=O)c(C)c32)c1 [Trametinib] (partner 0.02 µM)
Method in brief: as §1

[3] = compound: COc1cc(Nc2ncc3c(n2)-c2ccc(Cl)cc2C(c2c(F)cccc2OC)=NC3)ccc1C(=O)O [Alisertib] + O=C(c1cc(Cc2n[nH]c(=O)c3ccccc23)ccc1F)N1CCN(C(=O)C2CC2)CC1 [Olaparib] (partner 8 µM)
Method in brief: as §1

[4] = compound: COc1cc(Nc2ncc3c(n2)-c2ccc(Cl)cc2C(c2c(F)cccc2OC)=NC3)ccc1C(=O)O [Alisertib] + CS(=O)(=O)N1CCN(Cc2cc3nc(-c4cccc5[nH]ncc45)nc(N4CCOCC4)c3s2)CC1 [Pictilisib] (partner 1 µM)
Method in brief: as §1

Row | Cell Line | relative viability ([1]; first compound 0.005 µM) | relative viability ([1]; first compound 0.01581 µM) | relative viability ([1]; first compound 0.05 µM) | relative viability ([1]; first compound 0.1581 µM) | relative viability ([1]; first compound 0.5 µM) | relative viability ([2]; first compound 0.005 µM) | relative viability ([2]; first compound 0.01581 µM) | relative viability ([2]; first compound 0.05 µM) | relative viability ([2]; first compound 0.1581 µM) | relative viability ([2]; first compound 0.5 µM) | relative viability ([3]; first compound 0.005 µM) | relative viability ([3]; first compound 0.01581 µM) | relative viability ([3]; first compound 0.05 µM) | relative viability ([3]; first compound 0.1581 µM) | relative viability ([3]; first compound 0.5 µM) | relative viability ([4]; first compound 0.005 µM) | relative viability ([4]; first compound 0.01581 µM) | relative viability ([4]; first compound 0.05 µM) | relative viability ([4]; first compound 0.1581 µM) | relative viability ([4]; first compound 0.5 µM)
1 | NCI-H1755 | 0.891 | 0.886 | 0.877 | 0.389 | 0.318 | 0.742 | 0.712 | 0.474 | 0.426 | 0.305 | 0.814 | 0.792 | 0.532 | 0.509 | 0.287 | 0.41 | 0.347 | 0.271 | 0.227 | 0.184
2 | NCI-H1792 | 0.935 | 0.871 | 0.555 | 0.21 | 0.0867 | 0.413 | 0.43 | 0.291 | 0.0949 | 0.072 | 0.425 | 0.384 | 0.138 | 0.0583 | 0.0651 | 0.304 | 0.223 | 0.0811 | 0.0732 | 0.0644
3 | NCI-H1915 | 0.763 | 0.811 | 0.607 | 0.327 | 0.237 | 0.303 | 0.303 | 0.241 | 0.201 | 0.138 | 0.218 | 0.186 | 0.142 | 0.138 | 0.129 | 0.732 | 0.675 | 0.45 | 0.301 | 0.174
4 | NCI-H1975 | 0.324 | 0.334 | 0.215 | 0.159 | 0.152 | 0.303 | 0.33 | 0.195 | 0.241 | 0.169 | 0.68 | 0.627 | 0.347 | 0.234 | 0.163 | 0.26 | 0.348 | 0.237 | 0.151 | 0.163
5 | NCI-H1993 | 0.97 | 0.982 | 0.549 | 0.542 | 0.497 | 0.493 | 0.513 | 0.442 | 0.404 | 0.455 | 1.09 | 0.995 | 0.682 | 0.483 | 0.433 | 0.895 | 0.785 | 0.67 | 0.568 | 0.778
6 | NCI-H2009 | 0.952 | 0.91 | 0.392 | 0.208 | 0.167 | 0.272 | 0.28 | 0.287 | 0.136 | 0.138 | 0.645 | 0.689 | 0.275 | 0.291 | 0.148 | 0.787 | 0.787 | 0.387 | 0.185 | 0.139
7 | NCI-H2023 | 0.904 | 0.824 | 0.539 | 0.199 | 0.0763 | 0.623 | 0.435 | 0.289 | 0.123 | 0.124 | 0.448 | 0.456 | 0.27 | 0.134 | 0.101 | 0.193 | 0.194 | 0.191 | 0.128 | 0.0717
